Key:
RSV M protein = target: T1, RSV M protein (Human respiratory syncytial virus A2, UniProt P0DOE7); assay: LUV cosedimentation, SDS-PAGE densitometry; assay type: binding; details: PC:PS (70:30) LUVs; accessible PS 50 μM to 1.5 mM; 8 μM M; 150 mM NaCl, 10 mM Tris-HCl, pH 7.4, 25 °C; acyl chains of PS not told; read-out: Kd,app
T1 construct: full-length M, recombinant from E. coli Rosetta 2 (pCDF-M); His6 tag cut with 3C protease; dimer

[1] = target: His6-GCN4-FCT (Histidine tag and GCN4 leucine zipper domain fused to the cytoplasmic tail of the RSV fusion (F) glycoprotein) (not stated | human respiratory syncytial virus); assay: SDS-PAGE with Western blotting; purified His-GCN4-FCT on SDS-PAGE, detected with an anti-His antibody

T1 sequence (P0DOE7 whole entry): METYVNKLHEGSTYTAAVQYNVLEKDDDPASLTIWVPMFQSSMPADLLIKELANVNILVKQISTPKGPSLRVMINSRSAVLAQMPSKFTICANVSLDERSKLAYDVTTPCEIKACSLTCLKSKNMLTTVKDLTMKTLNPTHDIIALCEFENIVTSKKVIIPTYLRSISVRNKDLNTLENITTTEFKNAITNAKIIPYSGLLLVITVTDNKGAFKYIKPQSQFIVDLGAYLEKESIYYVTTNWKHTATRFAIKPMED

Substance	Kd (RSV M protein)	stoichiometry N [1]
phosphatidylserine [PS]	15 to 57 µM	–
His6-GCN4-FCT (Histidine tag and GCN4 leucine zipper domain fused to the cytoplasmic tail of the RSV fusion (F) glycoprotein)	–	3

Source: publication PMC10641529, “Selective targeting and clustering of phosphatidylserine lipids by RSV M protein is critical for virus particle production” (The Journal of Biological Chemistry, 2023)
